Article PMC10924921, “Mi-2β promotes immune evasion in melanoma by activating EZH2 methylation” (Nature Communications, 2024)

Legend:
[1] = test system: H3K27me3 and H3K27ac in melanoma cells (B16F10, PM); assay: Western blot of epigenetic modifications of H3; type: cell-based, mouse
Experimental: The lysis buffer (50 mM Tris pH 7.4, 1% Triton X-100, 0.5 mM EDTA, 0.5 mM EGTA, 150 mM NaCl, 10% glycerol, 1 mM phenylmethylsulfonyl fluoride and complete protease inhibitor cocktail (Roche)) were used to prepare the whole-cell lysates, which was followed by homogenization and centrifuge (14,000 rpm for 15 min at 4 °C). Pierce BCA Protein Assay Kit (Thermo Fisher Scientific) was used to detect protein concentration. After SDS-PAGE separation and PVDF membrane (BIO-RAD) transfer of the proteins, the specific primary was probed at 4 °C for overnight, before incubated with corresponding horseradish peroxidase (HRP)-conjugated 2nd antibodies. Pierce ECL Western Blotting Substrate (Thermo Fisher Scientific) was used for protein detection. Antibodies were: anti-Mi-2β(1:1000), anti-EZH2 (ab70469, Abcam) (1:1000), anti-β-actin-peroxidase antibody (AC15) (1:5000) and anti-rabbit secondary antibody (A-4914) (1:10,000). Antibody information have shown in Supplementary data 3.
Supplementary Figure 10. […] A mouse survival curve is shown, with log-rank test for mouse survival P value. b,c The epigenetic modifications of H3 (H3K27ac, H3K27me1 and H3K27me3) were measured in B16F10 cells stimulated with GSK126 or Z36-MP5 as indicated (n = 3, independent experiments). d The amount of secreted Cxcl9 and Cxcl10 was measured by ELISA in […]

ABL1-nonphosphorylated = biological target: T1, ABL1-nonphosphorylated (Homo sapiens, UniProt P00519); assay: biochemical; design: KINOMEscan active-site competition binding panel (468 kinase assays), per cent of control at 1000 nM; conditions: KINOMEscan per cent of control (binding competition); read-out: Percent Control
T1 construct: nonphosphorylated
T1 sequence (P00519 whole entry): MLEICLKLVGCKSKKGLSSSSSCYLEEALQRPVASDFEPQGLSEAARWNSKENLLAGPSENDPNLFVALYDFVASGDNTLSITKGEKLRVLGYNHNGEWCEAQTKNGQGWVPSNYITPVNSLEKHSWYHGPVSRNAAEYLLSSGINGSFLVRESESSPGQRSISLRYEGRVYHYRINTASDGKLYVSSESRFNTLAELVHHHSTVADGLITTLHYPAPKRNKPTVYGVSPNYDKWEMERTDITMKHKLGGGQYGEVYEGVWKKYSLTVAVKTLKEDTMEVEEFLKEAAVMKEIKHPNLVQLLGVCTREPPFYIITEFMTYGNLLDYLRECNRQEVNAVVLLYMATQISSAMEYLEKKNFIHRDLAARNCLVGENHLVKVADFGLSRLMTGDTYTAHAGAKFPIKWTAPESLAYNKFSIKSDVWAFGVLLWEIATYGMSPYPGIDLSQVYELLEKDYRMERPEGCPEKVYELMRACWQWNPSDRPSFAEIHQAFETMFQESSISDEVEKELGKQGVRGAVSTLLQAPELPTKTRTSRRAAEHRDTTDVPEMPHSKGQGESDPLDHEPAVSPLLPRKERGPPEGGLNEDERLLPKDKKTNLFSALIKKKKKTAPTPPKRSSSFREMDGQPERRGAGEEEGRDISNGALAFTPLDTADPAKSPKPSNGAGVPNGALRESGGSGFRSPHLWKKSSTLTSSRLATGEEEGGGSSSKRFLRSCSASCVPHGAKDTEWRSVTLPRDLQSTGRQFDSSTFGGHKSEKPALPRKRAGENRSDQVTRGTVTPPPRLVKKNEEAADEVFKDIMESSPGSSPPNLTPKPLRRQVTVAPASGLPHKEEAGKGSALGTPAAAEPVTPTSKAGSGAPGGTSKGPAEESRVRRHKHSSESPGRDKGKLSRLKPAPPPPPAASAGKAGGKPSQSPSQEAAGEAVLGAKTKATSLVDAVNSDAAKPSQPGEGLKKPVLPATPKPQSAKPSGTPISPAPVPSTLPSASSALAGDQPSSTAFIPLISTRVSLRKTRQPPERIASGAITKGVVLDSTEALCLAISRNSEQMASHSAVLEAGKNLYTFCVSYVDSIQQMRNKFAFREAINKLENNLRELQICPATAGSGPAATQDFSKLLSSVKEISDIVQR
Text: (§1) Figure S7 / Percent Control

CSNK1A1 = CSNK1A1 (Homo sapiens, UniProt P48729); assay: biochemical; design: KINOMEscan active-site competition binding panel (468 kinase assays), per cent of control at 1000 nM; conditions: KINOMEscan per cent of control (binding competition); read-out: Percent Control
CSNK1A1, sequence (P48729 whole entry): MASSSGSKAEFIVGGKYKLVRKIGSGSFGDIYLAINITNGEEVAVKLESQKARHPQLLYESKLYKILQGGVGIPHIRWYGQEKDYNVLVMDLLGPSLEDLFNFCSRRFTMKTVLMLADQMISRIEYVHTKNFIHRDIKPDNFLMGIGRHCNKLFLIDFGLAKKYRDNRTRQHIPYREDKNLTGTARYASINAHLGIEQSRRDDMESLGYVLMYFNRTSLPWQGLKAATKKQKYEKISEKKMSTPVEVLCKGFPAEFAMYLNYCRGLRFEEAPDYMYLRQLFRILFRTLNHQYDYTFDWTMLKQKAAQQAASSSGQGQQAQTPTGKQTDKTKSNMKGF
Text: as §1

DMPK2 = biological target: T2, DMPK2 (Homo sapiens, UniProt Q6DT37); assay: biochemical; design: KINOMEscan active-site competition binding panel (468 kinase assays), per cent of control at 1000 nM; conditions: KINOMEscan per cent of control (binding competition); read-out: Percent Control
T2 construct: gene CDC42BPG
Text: as §1

EPHB6 = EPHB6 (Homo sapiens, UniProt O15197); assay: biochemical; design: KINOMEscan active-site competition binding panel (468 kinase assays), per cent of control at 1000 nM; conditions: KINOMEscan per cent of control (binding competition); read-out: Percent Control
Text: as §1

MUSK = MUSK (Homo sapiens, UniProt O15146); assay: biochemical; design: KINOMEscan active-site competition binding panel (468 kinase assays), per cent of control at 1000 nM; conditions: KINOMEscan per cent of control (binding competition); read-out: Percent Control
Text: as §1

PIK3C2B = PIK3C2B (Homo sapiens, UniProt O00750); assay: biochemical; design: KINOMEscan active-site competition binding panel (468 kinase assays), per cent of control at 1000 nM; conditions: KINOMEscan per cent of control (binding competition); read-out: Percent Control
Text: as §1

PLK4 = PLK4 (Homo sapiens, UniProt O00444); assay: biochemical; design: KINOMEscan active-site competition binding panel (468 kinase assays), per cent of control at 1000 nM; conditions: KINOMEscan per cent of control (binding competition); read-out: Percent Control
Text: as §1

PRKX = PRKX (Homo sapiens, UniProt P51817); assay: biochemical; design: KINOMEscan active-site competition binding panel (468 kinase assays), per cent of control at 1000 nM; conditions: KINOMEscan per cent of control (binding competition); read-out: Percent Control
Text: as §1

QSK = biological target: T3, QSK (Homo sapiens, UniProt Q9Y2K2); assay: biochemical; design: KINOMEscan active-site competition binding panel (468 kinase assays), per cent of control at 1000 nM; conditions: KINOMEscan per cent of control (binding competition); read-out: Percent Control
T3 construct: gene SIK3
T3 sequence (Q9Y2K2 whole entry): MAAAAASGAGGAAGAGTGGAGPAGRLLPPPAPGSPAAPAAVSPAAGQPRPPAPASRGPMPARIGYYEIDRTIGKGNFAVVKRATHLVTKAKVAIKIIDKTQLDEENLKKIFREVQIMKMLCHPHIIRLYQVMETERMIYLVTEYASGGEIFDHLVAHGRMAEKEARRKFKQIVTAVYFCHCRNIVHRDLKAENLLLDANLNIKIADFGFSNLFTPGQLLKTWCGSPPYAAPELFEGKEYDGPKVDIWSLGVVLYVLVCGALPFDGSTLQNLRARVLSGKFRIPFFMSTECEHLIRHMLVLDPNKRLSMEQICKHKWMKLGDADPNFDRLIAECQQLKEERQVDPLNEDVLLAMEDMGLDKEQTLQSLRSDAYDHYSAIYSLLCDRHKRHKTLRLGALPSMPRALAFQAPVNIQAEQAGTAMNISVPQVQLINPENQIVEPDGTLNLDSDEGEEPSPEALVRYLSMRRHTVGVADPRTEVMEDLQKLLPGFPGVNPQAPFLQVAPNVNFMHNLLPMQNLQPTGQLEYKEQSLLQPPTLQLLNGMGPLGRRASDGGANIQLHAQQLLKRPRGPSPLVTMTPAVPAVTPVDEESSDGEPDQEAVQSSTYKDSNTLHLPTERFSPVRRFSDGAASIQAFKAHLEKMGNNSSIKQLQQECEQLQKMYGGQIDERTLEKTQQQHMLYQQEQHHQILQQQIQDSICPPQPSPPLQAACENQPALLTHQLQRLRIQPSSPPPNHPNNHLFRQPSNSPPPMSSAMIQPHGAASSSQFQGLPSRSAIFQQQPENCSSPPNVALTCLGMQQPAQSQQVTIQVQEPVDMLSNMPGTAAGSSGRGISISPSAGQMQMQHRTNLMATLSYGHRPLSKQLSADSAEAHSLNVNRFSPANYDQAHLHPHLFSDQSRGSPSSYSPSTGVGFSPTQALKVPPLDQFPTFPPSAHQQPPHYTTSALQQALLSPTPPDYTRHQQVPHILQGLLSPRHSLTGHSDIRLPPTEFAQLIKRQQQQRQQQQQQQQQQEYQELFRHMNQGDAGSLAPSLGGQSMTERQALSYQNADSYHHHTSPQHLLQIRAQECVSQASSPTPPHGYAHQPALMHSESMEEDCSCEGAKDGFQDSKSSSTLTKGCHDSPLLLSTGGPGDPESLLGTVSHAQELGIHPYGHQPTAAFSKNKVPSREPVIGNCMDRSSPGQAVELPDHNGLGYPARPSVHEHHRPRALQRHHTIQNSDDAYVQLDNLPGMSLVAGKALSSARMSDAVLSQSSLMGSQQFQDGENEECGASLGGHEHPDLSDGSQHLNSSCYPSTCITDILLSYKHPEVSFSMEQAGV
Text: as §1

ROS1 = ROS1 (Homo sapiens, UniProt P08922); assay: biochemical; design: KINOMEscan active-site competition binding panel (468 kinase assays), per cent of control at 1000 nM; conditions: KINOMEscan per cent of control (binding competition); read-out: Percent Control
ROS1, sequence (P08922 whole entry): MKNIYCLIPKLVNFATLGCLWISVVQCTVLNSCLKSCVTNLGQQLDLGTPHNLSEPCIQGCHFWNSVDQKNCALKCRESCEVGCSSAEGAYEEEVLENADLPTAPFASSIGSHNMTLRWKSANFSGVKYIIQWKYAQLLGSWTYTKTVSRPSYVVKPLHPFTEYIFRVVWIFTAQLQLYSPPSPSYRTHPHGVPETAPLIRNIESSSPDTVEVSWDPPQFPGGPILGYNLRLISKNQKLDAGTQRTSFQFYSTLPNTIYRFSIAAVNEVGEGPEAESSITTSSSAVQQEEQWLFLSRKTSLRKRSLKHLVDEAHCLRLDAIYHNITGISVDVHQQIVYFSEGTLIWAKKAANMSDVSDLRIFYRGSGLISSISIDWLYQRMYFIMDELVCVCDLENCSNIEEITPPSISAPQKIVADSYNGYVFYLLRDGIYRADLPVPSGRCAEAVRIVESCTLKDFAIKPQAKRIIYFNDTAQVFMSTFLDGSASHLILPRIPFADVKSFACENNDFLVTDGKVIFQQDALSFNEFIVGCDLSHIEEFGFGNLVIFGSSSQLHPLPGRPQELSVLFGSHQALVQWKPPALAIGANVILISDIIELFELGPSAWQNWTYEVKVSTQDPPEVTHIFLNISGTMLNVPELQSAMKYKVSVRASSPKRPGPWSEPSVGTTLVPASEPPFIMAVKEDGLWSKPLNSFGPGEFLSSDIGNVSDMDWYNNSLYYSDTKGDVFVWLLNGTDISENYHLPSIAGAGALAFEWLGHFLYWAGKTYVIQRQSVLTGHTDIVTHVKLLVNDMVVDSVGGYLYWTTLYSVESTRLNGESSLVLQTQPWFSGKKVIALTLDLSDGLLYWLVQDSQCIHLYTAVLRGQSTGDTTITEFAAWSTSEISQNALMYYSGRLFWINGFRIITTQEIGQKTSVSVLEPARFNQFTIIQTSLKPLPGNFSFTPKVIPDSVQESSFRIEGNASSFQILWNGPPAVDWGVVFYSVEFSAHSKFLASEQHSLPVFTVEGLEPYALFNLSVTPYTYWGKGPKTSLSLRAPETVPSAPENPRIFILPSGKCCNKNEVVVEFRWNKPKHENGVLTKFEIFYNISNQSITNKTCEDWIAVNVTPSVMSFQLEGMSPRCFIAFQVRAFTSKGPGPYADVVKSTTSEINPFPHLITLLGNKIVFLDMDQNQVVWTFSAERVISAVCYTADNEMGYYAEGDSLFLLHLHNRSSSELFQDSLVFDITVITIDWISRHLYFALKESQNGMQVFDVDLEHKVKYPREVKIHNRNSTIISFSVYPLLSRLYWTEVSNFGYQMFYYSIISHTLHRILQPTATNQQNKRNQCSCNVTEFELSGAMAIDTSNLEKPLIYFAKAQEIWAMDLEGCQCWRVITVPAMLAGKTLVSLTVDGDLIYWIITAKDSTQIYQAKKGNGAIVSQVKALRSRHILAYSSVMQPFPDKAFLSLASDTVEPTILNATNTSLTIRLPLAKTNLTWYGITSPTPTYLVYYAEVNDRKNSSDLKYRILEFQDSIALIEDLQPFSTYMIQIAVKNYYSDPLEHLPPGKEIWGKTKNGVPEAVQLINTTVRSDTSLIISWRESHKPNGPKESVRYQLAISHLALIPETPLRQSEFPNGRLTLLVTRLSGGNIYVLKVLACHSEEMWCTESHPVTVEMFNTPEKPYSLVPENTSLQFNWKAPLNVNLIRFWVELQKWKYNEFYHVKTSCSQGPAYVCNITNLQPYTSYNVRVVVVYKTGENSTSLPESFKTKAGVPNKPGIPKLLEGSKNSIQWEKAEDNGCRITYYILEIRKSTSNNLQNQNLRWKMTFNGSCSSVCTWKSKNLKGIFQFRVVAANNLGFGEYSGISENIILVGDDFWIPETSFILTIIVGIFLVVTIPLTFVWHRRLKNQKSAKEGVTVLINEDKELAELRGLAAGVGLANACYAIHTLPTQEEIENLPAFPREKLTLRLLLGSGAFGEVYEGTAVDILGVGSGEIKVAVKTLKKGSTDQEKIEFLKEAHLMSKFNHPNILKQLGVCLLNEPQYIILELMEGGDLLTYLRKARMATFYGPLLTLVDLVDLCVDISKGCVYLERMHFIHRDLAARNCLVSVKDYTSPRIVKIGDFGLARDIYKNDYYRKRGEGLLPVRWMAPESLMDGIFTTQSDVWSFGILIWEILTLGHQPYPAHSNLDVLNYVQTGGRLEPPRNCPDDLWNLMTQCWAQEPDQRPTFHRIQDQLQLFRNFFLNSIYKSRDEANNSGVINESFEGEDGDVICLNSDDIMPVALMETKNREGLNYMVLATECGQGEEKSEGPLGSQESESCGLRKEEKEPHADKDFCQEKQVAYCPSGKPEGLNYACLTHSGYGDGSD
Text: as §1

TGFBR1 = TGFBR1 (Homo sapiens, UniProt P36897); assay: biochemical; design: KINOMEscan active-site competition binding panel (468 kinase assays), per cent of control at 1000 nM; conditions: KINOMEscan per cent of control (binding competition); read-out: Percent Control
Text: as §1

SMILES: Cn1c(=O)[nH]c2ccc(-c3cccc(C(=O)NC4CCn5ccnc5C4)c3)cc21 (stereo not shown) [Z36-MP5]
- H3K27ac level ([1]; PM cells, compared to GSK126 treatment): only slightly increased
- level of H3K27me3 ([1]; melanoma cells): repressed
- remaining binding at 1 µM (ABL1-nonphosphorylated): 91%
- remaining binding at 1 µM (CSNK1A1): 74%
- remaining binding at 1 µM (DMPK2): 99%
- remaining binding at 1 µM (EPHB6): 81%
- remaining binding at 1 µM (MUSK): 83%
- remaining binding at 1 µM (PIK3C2B): 87%
- remaining binding at 1 µM (PLK4): 31%
- remaining binding at 1 µM (PRKX): 38%
- remaining binding at 1 µM (QSK): 63%
- remaining binding at 1 µM (ROS1): 51%
- remaining binding at 1 µM (TGFBR1): 90%
